Results on 2 molecules are retold here after ChEMBL document CHEMBL1201862, “PubChem BioAssay data set” (2004).

Holding throughout (assay type): functional
In assay [1] the target is T1, Sentrin-specific protease 7 (Homo sapiens, UniProt Q9BQF6).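 Also: Luminescence-based dose-response confirmation of ultra-high-throughput screening hits, measuring inhibition of SENP7.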
T1 sequence (Q9BQF6 whole entry): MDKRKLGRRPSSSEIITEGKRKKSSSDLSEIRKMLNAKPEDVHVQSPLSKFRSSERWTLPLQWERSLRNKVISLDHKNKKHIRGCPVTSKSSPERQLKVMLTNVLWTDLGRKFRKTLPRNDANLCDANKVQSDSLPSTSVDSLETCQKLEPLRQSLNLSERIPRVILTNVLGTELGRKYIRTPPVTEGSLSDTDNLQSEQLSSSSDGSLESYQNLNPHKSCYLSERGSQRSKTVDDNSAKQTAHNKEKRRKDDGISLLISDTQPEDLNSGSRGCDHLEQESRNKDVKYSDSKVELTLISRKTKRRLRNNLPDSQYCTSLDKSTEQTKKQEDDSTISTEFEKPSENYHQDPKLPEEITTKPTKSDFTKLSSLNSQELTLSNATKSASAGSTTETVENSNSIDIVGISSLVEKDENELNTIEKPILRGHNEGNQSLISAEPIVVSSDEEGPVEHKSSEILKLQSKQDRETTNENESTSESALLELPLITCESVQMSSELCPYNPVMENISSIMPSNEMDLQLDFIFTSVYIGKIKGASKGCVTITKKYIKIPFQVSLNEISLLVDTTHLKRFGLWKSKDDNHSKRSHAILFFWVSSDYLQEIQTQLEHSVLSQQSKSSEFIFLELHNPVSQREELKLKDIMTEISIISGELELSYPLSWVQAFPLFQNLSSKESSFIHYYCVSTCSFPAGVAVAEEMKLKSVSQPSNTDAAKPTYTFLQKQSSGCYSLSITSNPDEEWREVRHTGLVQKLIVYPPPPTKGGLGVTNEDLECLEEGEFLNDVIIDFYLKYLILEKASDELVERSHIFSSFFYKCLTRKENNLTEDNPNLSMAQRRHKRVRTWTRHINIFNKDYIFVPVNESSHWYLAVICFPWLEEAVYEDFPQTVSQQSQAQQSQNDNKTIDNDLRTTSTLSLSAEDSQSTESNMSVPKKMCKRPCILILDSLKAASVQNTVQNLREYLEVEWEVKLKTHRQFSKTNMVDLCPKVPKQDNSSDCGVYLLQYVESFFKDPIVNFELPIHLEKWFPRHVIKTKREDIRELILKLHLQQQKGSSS

Assay [2] addresses T2, Orexin receptor type 2 (Homo sapiens, UniProt O43614).
T2 sequence (O43614 whole entry): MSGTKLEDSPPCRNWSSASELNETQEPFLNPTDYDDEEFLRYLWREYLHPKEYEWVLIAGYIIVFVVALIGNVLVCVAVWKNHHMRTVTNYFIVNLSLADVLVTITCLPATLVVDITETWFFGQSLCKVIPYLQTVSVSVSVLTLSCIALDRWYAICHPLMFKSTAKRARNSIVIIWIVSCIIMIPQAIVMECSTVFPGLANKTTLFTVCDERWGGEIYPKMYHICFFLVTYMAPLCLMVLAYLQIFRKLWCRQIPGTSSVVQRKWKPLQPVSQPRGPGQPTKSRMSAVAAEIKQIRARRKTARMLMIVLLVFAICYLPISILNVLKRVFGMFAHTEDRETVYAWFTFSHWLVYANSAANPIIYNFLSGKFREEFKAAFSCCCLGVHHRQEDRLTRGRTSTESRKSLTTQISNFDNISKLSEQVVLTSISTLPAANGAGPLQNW
The experiment in a line: Counterscreen assay for antagonists of the orexin 1 receptor (OX1R; HCRTR1): Fluorescence-based cell-based dose response assay for antagonists of the orexin 2 receptor (OX2R; HCRTR2), run by assay provider. (In general: A counterscreen serves to expose hits that act by an unwanted route or on another target.)

Assay [3] addresses T2, Orexin receptor type 2. Kind of assay: Counterscreen assay for antagonists of the orexin 1 receptor (OX1R; HCRTR1): Homogeneous Time Resolved Fluorescence (HTRF)-based cell-based dose response assay for antagonists of the orexin 2 receptor (OX2R; HCRTR2), run by assay provider.
Assay [4] has as its target Ribosomal protein S6 kinase alpha-3 (Homo sapiens, UniProt P51812).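 Also: measured within a kinome-wide profiling panel.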
For assay [5], the target named is Proto-oncogene tyrosine-protein kinase receptor Ret (Homo sapiens, UniProt P07949).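 Also: measured within a kinome-wide profiling panel, RET as the panel member.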
The target in assay [6] is Tyrosine-protein kinase receptor TYRO3 (Homo sapiens, UniProt Q06418).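 Also: TYRO3 value obtained as one member of a kinome-wide profiling panel.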
The target in assay [7] is Serine/threonine-protein kinase pim-1 (Homo sapiens, UniProt P11309).
For assay [8], the target named is T3, Aurora kinase A (Homo sapiens, UniProt O14965).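 Also: value from the Navigating the Kinome kinase panel profiling, panel entry STK6.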
T3 sequence (O14965 whole entry): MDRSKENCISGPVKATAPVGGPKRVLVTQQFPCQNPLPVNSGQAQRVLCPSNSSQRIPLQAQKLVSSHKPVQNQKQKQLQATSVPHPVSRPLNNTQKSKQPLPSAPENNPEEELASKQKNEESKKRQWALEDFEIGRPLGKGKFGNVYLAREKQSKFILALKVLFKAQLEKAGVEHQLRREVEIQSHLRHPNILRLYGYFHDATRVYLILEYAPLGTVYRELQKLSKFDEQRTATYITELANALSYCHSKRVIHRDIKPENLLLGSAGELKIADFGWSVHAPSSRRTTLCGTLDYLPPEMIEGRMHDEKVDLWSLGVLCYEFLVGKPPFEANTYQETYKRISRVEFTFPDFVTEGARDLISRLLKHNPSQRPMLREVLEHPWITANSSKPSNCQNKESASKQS

The target in assay [9] is Tyrosine-protein kinase BTK (Homo sapiens, UniProt Q06187).
Assay [10] deals with Serine/threonine-protein kinase TAO1 (Homo sapiens, UniProt Q7L7X3).
Assay [11] concerns the target Mitogen-activated protein kinase kinase kinase kinase 2 (Homo sapiens, UniProt Q12851).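 Also: measured as one member of a kinome-wide kinase panel, with MAP4K2 as the panel entry.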
Assay [12] concerns the target G protein-coupled receptor kinase 5 (Homo sapiens, UniProt P34947). The experiment in a line: Navigating the Kinome. Panel member name: GPRK5.
Assay [13] concerns the target Dual specificity tyrosine-phosphorylation-regulated kinase 1B (Homo sapiens, UniProt Q9Y463). Kind of assay: Navigating the Kinome. Panel member name: DYRK1B.
The target of assay [14] is Aurora kinase B (Homo sapiens, UniProt Q96GD4).
Assay [15] addresses Serine/threonine-protein kinase Nek2 (Homo sapiens, UniProt P51955).
The target in assay [16] is cAMP-dependent protein kinase catalytic subunit alpha (Homo sapiens, UniProt P17612).
Assay [17] concerns the target Dual specificity protein kinase CLK4 (Homo sapiens, UniProt Q9HAZ1).
For assay [18], the target named is Inhibitor of nuclear factor kappa-B kinase subunit epsilon (Homo sapiens, UniProt Q14164). Kind of assay: Navigating the Kinome. Panel member name: IKBKE.
Assay [19] addresses Calcium/calmodulin-dependent protein kinase type II subunit alpha (Homo sapiens, UniProt Q9UQM7). Kind of assay: Navigating the Kinome. Panel member name: CAMK2A.

Calls of active or inactive are those of the source.

Usually IC50 stands for the concentration needed to halve the response being measured. By Ki is commonly meant a measure of affinity in units of concentration, obtained from inhibition or displacement.

Sequence of Inhibitor of nuclear factor kappa-B kinase subunit epsilon (Q14164 whole entry): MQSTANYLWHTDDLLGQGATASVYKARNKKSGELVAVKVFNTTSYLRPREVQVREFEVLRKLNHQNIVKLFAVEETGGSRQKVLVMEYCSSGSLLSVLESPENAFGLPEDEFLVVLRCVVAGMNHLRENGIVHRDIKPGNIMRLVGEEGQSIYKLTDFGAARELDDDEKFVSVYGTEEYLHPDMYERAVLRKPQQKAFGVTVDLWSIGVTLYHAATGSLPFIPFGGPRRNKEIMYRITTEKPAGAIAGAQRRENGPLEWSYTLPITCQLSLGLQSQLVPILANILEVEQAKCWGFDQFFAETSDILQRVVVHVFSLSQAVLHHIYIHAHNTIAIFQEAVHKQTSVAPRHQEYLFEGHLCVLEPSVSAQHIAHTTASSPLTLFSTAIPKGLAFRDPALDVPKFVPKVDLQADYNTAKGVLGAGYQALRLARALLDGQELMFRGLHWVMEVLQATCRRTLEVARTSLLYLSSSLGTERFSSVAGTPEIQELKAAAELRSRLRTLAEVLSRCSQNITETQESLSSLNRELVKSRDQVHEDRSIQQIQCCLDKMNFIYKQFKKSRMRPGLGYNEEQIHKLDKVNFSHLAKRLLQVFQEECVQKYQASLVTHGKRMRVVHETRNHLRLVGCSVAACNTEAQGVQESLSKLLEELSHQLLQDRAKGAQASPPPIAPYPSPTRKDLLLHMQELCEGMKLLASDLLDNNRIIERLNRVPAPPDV
Sequence of Tyrosine-protein kinase receptor TYRO3 (Q06418 whole entry): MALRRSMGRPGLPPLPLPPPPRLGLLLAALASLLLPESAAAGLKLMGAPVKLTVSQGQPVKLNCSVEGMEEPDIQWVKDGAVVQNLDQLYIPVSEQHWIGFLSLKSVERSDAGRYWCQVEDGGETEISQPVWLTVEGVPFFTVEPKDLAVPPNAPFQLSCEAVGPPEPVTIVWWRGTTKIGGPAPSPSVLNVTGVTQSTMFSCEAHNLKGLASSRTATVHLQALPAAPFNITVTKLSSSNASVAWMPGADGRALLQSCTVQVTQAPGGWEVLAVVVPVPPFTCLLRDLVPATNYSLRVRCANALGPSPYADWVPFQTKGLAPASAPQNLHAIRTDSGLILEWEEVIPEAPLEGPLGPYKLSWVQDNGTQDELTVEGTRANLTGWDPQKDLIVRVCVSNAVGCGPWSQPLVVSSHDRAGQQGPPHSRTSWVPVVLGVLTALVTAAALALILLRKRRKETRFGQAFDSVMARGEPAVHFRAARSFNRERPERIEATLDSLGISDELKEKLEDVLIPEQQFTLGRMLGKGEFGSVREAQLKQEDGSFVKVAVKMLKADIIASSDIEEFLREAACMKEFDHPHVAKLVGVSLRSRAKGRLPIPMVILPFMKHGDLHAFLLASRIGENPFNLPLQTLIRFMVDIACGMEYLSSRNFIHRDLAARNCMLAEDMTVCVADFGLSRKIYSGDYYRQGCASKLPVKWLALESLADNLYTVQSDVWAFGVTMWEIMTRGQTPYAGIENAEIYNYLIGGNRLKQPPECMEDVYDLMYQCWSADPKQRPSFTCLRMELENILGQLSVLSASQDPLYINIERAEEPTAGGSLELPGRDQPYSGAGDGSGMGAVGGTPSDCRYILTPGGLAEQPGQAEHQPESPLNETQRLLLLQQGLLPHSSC
Sequence of Ribosomal protein S6 kinase alpha-3 (P51812 whole entry): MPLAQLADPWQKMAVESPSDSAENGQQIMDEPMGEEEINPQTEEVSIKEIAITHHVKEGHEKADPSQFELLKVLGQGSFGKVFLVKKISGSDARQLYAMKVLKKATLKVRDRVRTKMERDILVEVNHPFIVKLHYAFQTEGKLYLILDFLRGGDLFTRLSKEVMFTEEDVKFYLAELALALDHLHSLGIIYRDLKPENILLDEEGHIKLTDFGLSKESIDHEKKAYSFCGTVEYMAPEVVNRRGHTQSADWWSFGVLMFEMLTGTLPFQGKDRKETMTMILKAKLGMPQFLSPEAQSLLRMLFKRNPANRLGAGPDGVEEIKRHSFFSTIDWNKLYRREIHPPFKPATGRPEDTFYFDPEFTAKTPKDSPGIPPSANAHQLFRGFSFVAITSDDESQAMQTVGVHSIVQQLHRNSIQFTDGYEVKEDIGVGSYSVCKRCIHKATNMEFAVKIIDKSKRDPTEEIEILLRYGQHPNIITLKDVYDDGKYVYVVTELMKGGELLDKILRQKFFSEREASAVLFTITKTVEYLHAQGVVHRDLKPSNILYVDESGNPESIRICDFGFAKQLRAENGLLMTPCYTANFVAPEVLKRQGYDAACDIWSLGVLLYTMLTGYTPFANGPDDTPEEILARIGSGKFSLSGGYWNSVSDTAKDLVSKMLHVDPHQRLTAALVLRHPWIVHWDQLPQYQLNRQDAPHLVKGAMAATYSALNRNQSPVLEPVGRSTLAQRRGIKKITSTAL
Sequence of Mitogen-activated protein kinase kinase kinase kinase 2 (Q12851 whole entry): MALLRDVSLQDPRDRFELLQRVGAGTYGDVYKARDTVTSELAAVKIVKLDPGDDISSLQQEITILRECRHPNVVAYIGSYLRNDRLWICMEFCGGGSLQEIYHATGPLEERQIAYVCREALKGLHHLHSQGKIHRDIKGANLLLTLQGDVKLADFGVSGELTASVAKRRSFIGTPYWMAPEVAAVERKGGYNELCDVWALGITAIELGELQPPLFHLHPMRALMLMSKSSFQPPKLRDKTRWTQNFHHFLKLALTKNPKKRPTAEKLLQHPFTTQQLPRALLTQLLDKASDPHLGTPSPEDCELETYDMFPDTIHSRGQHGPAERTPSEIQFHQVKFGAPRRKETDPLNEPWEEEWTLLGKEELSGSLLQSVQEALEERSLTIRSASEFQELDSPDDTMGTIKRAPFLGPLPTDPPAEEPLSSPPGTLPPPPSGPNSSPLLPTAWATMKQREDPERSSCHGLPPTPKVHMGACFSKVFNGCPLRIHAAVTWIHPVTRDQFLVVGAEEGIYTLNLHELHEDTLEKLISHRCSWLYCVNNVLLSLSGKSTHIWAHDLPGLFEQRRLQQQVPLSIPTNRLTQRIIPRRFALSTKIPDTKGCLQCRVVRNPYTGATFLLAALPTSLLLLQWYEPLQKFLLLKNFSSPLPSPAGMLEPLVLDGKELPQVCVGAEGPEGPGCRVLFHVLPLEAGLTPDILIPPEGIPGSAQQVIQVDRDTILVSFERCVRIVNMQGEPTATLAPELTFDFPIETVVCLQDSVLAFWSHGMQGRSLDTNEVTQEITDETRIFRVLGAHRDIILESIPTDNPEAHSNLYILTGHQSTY
Sequence of Proto-oncogene tyrosine-protein kinase receptor Ret (P07949 whole entry): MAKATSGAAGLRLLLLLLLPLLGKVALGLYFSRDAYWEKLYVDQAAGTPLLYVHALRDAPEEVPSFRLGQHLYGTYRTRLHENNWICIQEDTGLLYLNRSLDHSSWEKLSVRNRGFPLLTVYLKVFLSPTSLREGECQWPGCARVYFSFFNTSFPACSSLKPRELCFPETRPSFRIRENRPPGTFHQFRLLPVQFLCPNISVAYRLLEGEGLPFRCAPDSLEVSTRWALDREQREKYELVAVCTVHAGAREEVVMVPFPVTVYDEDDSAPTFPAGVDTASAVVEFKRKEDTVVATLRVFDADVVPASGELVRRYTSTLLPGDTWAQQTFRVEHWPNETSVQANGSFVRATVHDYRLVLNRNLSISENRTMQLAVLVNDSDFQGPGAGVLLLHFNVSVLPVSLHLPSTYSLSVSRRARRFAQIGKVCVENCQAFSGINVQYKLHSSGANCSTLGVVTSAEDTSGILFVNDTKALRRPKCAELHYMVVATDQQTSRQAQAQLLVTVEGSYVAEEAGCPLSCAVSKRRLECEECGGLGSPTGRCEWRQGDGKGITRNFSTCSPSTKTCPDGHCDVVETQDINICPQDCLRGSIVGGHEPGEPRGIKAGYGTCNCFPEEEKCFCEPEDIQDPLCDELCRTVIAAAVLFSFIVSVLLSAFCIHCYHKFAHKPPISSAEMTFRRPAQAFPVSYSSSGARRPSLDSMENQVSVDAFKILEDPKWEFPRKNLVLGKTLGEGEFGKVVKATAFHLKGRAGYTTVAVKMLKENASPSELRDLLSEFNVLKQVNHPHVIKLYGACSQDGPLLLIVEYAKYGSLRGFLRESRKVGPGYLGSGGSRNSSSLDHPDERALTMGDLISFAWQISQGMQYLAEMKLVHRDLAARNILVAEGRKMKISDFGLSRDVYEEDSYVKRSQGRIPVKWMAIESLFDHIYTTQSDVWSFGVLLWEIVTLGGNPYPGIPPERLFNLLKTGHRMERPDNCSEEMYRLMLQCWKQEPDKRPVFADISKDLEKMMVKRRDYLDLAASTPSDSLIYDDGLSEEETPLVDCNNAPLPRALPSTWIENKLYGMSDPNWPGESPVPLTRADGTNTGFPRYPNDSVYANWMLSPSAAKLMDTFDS
Sequence of Serine/threonine-protein kinase Nek2 (P51955 whole entry): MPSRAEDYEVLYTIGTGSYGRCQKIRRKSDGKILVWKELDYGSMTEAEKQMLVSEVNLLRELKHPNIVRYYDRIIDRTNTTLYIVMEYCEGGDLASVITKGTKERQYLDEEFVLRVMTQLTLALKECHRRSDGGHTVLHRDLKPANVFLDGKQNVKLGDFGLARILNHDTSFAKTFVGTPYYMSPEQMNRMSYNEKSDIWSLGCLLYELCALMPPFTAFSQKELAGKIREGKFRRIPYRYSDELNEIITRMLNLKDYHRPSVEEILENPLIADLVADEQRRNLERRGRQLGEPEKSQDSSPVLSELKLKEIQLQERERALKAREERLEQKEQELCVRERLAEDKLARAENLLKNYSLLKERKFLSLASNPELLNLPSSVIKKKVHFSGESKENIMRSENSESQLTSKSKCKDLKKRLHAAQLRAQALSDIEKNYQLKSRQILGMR
Sequence of Aurora kinase B (Q96GD4 whole entry): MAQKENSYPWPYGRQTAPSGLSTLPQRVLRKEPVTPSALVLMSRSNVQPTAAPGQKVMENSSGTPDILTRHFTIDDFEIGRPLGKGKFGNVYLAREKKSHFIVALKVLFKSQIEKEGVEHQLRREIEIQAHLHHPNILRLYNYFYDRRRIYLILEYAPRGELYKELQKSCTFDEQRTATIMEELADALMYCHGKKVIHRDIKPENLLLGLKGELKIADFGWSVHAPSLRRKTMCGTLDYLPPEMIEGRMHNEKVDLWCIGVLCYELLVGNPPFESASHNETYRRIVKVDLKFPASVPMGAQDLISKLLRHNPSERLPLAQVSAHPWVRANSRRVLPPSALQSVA

As for `Cc1ccnc2ccc(-c3nc4ccccc4o3)cc12`, the IC50 in [1] was 2.2 µM (active); in assay [2] it was > 88.8 µM (inactive); in [3], > 50 µM (inactive).

With `O=C(NCCc1cccs1)N1CC=C(c2c[nH]c3ncccc23)CC1`, the Ki in assay [4] was > 3.98 µM (inactive); in [5], > 3.16 µM (inactive); in [6], > 3.16 µM (inactive); in [7], 3.98 µM (active); in assay [8], > 1.58 µM (inactive); in assay [9], > 6.31 µM (inactive). For the same molecule, the Ki in assay [10] is > 6.31 µM (inactive); in assay [11] it was > 2.51 µM (inactive); in assay [12] it was > 3.98 µM (inactive); in assay [13], 0.0398 µM (active); in assay [14], > 3.98 µM (inactive); in assay [15] it was > 3.16 µM (inactive). For the same molecule, the Ki in assay [16] was 0.0631 µM (active); in assay [17] it was 0.0158 µM (active); in assay [18] it was > 3.16 µM (inactive); in [19] it was 3.98 µM (active).
